This note sets out measurements from patent US9505779B2 (EWHA University—Industry Collaboration Foundation, priority 2010, dated 2016).

Molecules are shown by their SMILES. “Also recorded” adds a separate entry of the source.

Experiment [1] has as its system human neuroblastoma SH-SY5Y cells. The experiment can be described thus: In vitro neurite outgrowth assay using human neuroblastoma cells. To be noted: for neurite processes compared with cells treated with NGF alone (micrographs, FIG. 8) / neurite outgrowth activity: SH-SY5Y; for neurite processes compared with cells treated with NGF alone (micrographs, FIG. 8): NGF plus 1 nM compound, after 96 h of cultivation; for neurite outgrowth activity: NGF. Format: cell-based. Here is the method: The relative nerve regeneration activities of the mutasynthetic analogues, 36-methyl-FK506 and 36-fluoro-FK520, compared with authentic K506 and FK520, were determined using human neuroblastoma cells. […] The cells (n=90) were randomly photographed after 96 hr of cultivation, then the number of cells with outgrowth was counted. The neurite lengths were measured on photographic prints. Duplicate wells were run in all experiments, and the entire experiment was replicated three times. Neurite length estimated from samples treated with NGF alone was used as a control (FIGS. 7 and 8).
(§1) For statistical comparisons of group differences, especially for both the T cell activation and neurite outgrowth assays, quantitative data were analyzed by one-way analysis of variance (ANOVA) followed by Fisher's t-test according to the statistical program SigmaStat® (Jandel Scientific; version 3.1).

In experiment [2] the test system is CD3/CD28-stimulated human T lymphocytes. The experiment can be described thus: In vitro T-cell activation assay (interleukin-2 secretion, ELISA). Format: cell-based. To be noted: human T-cells activated with CD3/CD28 antibodies, 0.1 and 1.0 nM compound, 16 to 20 hr; for in vitro immunosuppressive activity (interleukin-2 secreted from activated T-cells) as compared with the control group: control = activated cells without compound. The procedure:
After removal of cell debris by routine centrifugation, the supernatant was subjected to ELISA (R&D Systems) to quantify the level of interleukin-2 secreted from activated T-cells. The level of interleukin-2 obtained from T cells activated with CD3/CD28 without further treatment with the above compounds was used as a control (FIG. 7).
as §1
For orientation: An ELISA detects its analyte on a solid surface through an enzyme-linked reagent.

`C=CC[C@@H]1/C=C(\C)C[C@H](C)C[C@H](OC)[C@H]2O[C@@](O)(C(=O)C(=O)N3CCCC[C@H]3C(=O)O[C@H](/C(C)=C/[C@@H]3CC[C@@H](O)[C@H](OC)C3)[C@H](C)[C@@H](O)CC1=O)[C@H](C)C[C@@H]2OC` [FK506, tacrolimus, reference compound]: the “neurite processes compared with cells treated with NGF alone (micrographs, FIG. 8)” value in experiment [1] is on record as “longer”.
Turning to `CO[C@H]1C[C@@H](C)C/C(C)=C/[C@@H](CCF)C(=O)C[C@H](O)[C@@H](C)[C@@H](/C(C)=C/[C@@H]2CC[C@@H](O)[C@H](OC)C2)OC(=O)[C@@H]2CCCCN2C(=O)C(=O)[C@]2(O)O[C@H]1[C@@H](OC)C[C@H]2C` [36-fluoro-FK520], the “neurite processes compared with cells treated with NGF alone (micrographs, FIG. 8)” value in experiment [1] is “longer”. In addition, in experiment [1] (1 nM compound), the neurite outgrowth activity entry was “strong neurite outgrowth activity”. Also, the “in vitro immunosuppressive activity (interleukin-2 secreted from activated T-cells) as compared with the control group” value in experiment [2] was “have the immunosuppressive activity”.
For the compound `CC[C@@H]1/C=C(\C)C[C@H](C)C[C@H](OC)[C@H]2O[C@@](O)(C(=O)C(=O)N3CCCC[C@H]3C(=O)O[C@H](/C(C)=C/[C@@H]3CC[C@@H](O)[C@H](OC)C3)[C@H](C)[C@@H](O)CC1=O)[C@H](C)C[C@@H]2OC` [FK520, ascomycin, reference compound], the “neurite processes compared with cells treated with NGF alone (micrographs, FIG. 8)” value in experiment [1] is recorded as “exception”.
Regarding `C=C(C)C[C@@H]1/C=C(\C)C[C@H](C)C[C@H](OC)[C@H]2O[C@@](O)(C(=O)C(=O)N3CCCC[C@H]3C(=O)O[C@H](/C(C)=C/[C@@H]3CC[C@@H](O)[C@H](OC)C3)[C@H](C)[C@@H](O)CC1=O)[C@H](C)C[C@@H]2OC` [36-methyl-FK506], the “greater effect on neurite outgrowth compared with FK506” value in experiment [1] (SH-SY5Y treated with nerve growth factor (10 ng/ml), 1 nM compound, 96 hr) was ~20%. Besides, the “neurite processes compared with cells treated with NGF alone (micrographs, FIG. 8)” value in experiment [1] was “longer”. Moreover, the neurite outgrowth activity entry in experiment [1] (1 nM compound) is on record as “strong neurite outgrowth activity”. In experiment [2], the “in vitro immunosuppressive activity (interleukin-2 secretion) against FK506 and FK520” value is “not improved”; the “in vitro immunosuppressive activity (interleukin-2 secreted from activated T-cells) as compared with the control group” value is “significant immunosuppressive activity; also recorded: have the immunosuppressive activity”.
